Data taken from patent US11918592B2, “Inhibitors of cyclin dependent kinase 7 (CDK7)” (Syros Pharmaceuticals, Inc., priority 2018, dated 2024).
Where two headings read alike, the source gives them in different places.

Key:
CDK2/Cyclin E1 complex = CDK2/Cyclin E1 complex (Homo sapiens, UniProt P24941); test: CDK2 kinase inhibition assay (Caliper/LabChip EZ Reader)
Description: (§2) Compounds of the invention were assayed for inhibition of CDK7, CDK9, CDK12, and CDK2 activity at Biortus Biosciences (Jiangyin, Jiangsu Province, P.R. of China) using kinase assays for each CDK developed with a Caliper/LabChip EZ Reader (Perkin Elmer, Waltham, MA).
(§3) Furthermore, the CDK9 inhibition assay used CDK9/Cyclin T1 complex (8 nM) and “5-FAM-CDK9tide” peptide substrate (2 μM, synthesized fluorophore-labeled peptide with the following sequence: 5-FAM-GSRTPMY-NH2 (SEQ ID NO:2) where 5-FAM is defined above and NH2 signifies a C-terminal amide) with 10 mM MgCl2 in the buffer composition listed above. The CDK12 inhibition assay used CDK12 (aa686-1082)/Cyclin K complex (50 nM) and “5-FAM-CDK9tide” (2 μM) as defined above, with 2 mM MgCl2 in the buffer composition above. Additionally, the CDK2 inhibition assay used CDK2/Cyclin E1 complex (0.5 nM) and “5-FAM-CDK7tide” (2 μM) as defined above, with 2 mM MgCl2 in the buffer composition listed above.
(§4) The incubation period at 27° C. for each CDK inhibition assay was chosen such that the fraction of phosphorylated peptide product produced in each assay, relative to the total peptide concentration, was approximately 20% (±5%) for the uninhibited kinase (35 min. for CDK7, 35 min. for CDK2, 3 hr. for CDK12, 15 min. for CDK9).

[1] = biological target: CDK12 (aa686-1082)/Cyclin K complex (Homo sapiens, UniProt Q9NYV4); test: CDK12 kinase inhibition assay (Caliper/LabChip EZ Reader)
Description: as §2, §3, §4

CDK9/Cyclin T1 complex = CDK9/Cyclin T1 complex (Homo sapiens, UniProt P50750); test: CDK9 kinase inhibition assay (Caliper/LabChip EZ Reader)
Description: as §2, §3, §4

COV318 cells = test: Inhibition of cell proliferation, CyQUANT Direct, COV318; assay type: cell-based; conditions: Homo sapiens; COV318 ovarian cancer cells, 72-hour; read-out: COV 318 proliferation calculated IC50
Description: (§1) HCC70 and MB453 cells are cell lines derived from human triple negative breast cancer. COV318 and COV504 cells are cell lines derived from human ovarian cancer. Representative compounds of the invention were tested at different concentrations (from 4 μM to 126.4 pM; 0.5 log serial dilutions) for their ability to inhibit the proliferation of each of these cell lines. Known CDK inhibitors dinaciclib or N-((1S,3R)-3-((5-chloro-4-(1H-indol-3-yl) pyrimidin-2-yl)amino)cyclohexyl)-5-((E)-4-(dimethylamino)but-2-enamido)picolinamide and triptolide were used as positive controls. Cells were seeded at approximately 2,000 cells/well and grown in ATCC-formulated RPMI-1640 Medium (ATCC 30-2001)+10% FBS. The cells were cultured at 37° C. in a humidified chamber in the presence of 5% CO2. Proliferation assays were conducted over a 72-hour time period. CyQUANT® Direct Cell Proliferation Assay (Life Technologies, Chicago, IL USA) was used to assess the anti-proliferative effects of the compounds following manufacturer's directions and utilizing the reagents supplied with the CyQUANT® Direct Cell kit.

[2] = biological target: CDK7/Cyclin H/MAT1 complex (Homo sapiens, UniProt P50613); test: CDK7 kinase inhibition assay (Caliper/LabChip EZ Reader)
Description: as §2, §3, §4

COV504 cells = test: Inhibition of cell proliferation, CyQUANT Direct, COV504; assay type: cell-based; conditions: Homo sapiens; COV504 ovarian cancer cells, 72-hour; read-out: COV 504 proliferation calculated IC50
Description: as §1

HCC70 cells = test: Inhibition of cell proliferation, CyQUANT Direct, HCC70; assay type: cell-based, human; conditions: Homo sapiens, read-out: HCC 70 proliferation calculated IC50
Description: as §1

MB453 cells = test: Inhibition of cell proliferation, CyQUANT Direct, MB453; assay type: cell-based, human; conditions: Homo sapiens, read-out: MB 453 proliferation calculated IC50
Description: as §1

[3] = HCC70 triple negative breast cancer cells, 72-hour
[4] = MB453 triple negative breast cancer cells, 72-hour

CDK7/Cyclin H/MAT1 complex, sequence (P50613 whole entry): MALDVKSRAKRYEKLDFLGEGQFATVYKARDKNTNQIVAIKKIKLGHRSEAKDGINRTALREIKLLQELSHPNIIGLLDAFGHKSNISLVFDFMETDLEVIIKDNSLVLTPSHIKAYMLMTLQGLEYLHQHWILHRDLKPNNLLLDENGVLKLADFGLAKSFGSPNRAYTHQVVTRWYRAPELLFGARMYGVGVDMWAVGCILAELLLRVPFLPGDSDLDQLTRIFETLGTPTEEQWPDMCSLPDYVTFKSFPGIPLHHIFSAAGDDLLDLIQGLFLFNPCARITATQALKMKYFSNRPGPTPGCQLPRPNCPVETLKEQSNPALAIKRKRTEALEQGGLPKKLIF
CDK7/Cyclin H/MAT1 complex, sequence (P51946 whole entry partner): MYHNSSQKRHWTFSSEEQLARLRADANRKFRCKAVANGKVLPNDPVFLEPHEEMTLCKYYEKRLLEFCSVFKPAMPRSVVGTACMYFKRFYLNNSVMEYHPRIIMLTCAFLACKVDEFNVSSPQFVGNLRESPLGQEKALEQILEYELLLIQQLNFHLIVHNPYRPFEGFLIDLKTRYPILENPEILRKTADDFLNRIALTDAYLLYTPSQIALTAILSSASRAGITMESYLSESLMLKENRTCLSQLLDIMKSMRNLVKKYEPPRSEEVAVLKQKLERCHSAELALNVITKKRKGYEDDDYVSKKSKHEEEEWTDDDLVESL
CDK7/Cyclin H/MAT1 complex, sequence (P51948 whole entry partner): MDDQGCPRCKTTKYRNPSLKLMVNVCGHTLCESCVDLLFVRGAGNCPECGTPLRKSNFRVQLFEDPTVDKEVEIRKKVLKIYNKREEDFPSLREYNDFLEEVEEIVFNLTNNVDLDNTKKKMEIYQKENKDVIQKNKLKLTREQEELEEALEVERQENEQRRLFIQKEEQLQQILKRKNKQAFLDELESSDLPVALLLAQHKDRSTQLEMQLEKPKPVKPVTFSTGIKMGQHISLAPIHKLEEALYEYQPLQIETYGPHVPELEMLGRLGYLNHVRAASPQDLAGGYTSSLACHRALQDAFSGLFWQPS
CDK9/Cyclin T1 complex, sequence (P50750 whole entry): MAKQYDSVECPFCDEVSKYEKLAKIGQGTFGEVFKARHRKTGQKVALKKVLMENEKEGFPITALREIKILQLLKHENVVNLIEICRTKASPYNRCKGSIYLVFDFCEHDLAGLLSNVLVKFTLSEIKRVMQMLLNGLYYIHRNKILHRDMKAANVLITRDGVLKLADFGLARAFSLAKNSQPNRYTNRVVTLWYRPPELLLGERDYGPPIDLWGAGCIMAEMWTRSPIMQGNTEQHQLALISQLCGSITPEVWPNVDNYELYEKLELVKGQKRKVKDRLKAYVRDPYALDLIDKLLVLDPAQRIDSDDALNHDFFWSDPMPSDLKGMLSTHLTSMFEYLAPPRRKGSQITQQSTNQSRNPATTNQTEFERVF
CDK9/Cyclin T1 complex, sequence (O60563 whole entry partner): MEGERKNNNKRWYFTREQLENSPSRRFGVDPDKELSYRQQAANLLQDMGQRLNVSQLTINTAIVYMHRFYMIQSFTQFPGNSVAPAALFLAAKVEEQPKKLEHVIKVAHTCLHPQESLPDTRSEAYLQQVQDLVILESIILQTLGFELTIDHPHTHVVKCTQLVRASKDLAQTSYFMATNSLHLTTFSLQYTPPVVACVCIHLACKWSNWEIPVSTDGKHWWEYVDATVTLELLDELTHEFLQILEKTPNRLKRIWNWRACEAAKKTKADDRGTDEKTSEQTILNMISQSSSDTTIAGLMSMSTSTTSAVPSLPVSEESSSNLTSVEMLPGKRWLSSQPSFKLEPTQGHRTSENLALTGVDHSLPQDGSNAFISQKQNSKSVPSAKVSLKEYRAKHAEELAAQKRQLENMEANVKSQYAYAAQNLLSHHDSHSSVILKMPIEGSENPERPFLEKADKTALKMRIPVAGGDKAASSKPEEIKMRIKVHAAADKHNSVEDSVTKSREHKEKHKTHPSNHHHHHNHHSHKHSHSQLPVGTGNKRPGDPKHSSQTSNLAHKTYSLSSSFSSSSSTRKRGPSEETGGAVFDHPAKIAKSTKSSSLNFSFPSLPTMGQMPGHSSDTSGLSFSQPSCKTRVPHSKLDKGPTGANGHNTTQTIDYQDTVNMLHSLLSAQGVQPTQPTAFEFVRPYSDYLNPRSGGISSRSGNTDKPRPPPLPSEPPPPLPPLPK
CDK12 (aa686-1082)/Cyclin K complex, sequence (Q9NYV4 686-1082): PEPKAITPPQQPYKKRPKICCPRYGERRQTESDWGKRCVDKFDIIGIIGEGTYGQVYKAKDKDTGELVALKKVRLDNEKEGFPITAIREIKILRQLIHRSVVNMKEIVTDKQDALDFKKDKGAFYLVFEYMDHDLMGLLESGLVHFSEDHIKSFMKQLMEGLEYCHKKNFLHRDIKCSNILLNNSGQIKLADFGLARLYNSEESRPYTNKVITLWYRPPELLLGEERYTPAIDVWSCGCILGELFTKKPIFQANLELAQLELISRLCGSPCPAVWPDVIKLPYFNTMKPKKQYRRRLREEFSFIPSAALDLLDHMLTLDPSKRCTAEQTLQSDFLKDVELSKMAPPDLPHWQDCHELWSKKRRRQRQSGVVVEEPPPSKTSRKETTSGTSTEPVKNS
CDK12 (aa686-1082)/Cyclin K complex, sequence (O75909 whole entry partner, the tested form may be a part): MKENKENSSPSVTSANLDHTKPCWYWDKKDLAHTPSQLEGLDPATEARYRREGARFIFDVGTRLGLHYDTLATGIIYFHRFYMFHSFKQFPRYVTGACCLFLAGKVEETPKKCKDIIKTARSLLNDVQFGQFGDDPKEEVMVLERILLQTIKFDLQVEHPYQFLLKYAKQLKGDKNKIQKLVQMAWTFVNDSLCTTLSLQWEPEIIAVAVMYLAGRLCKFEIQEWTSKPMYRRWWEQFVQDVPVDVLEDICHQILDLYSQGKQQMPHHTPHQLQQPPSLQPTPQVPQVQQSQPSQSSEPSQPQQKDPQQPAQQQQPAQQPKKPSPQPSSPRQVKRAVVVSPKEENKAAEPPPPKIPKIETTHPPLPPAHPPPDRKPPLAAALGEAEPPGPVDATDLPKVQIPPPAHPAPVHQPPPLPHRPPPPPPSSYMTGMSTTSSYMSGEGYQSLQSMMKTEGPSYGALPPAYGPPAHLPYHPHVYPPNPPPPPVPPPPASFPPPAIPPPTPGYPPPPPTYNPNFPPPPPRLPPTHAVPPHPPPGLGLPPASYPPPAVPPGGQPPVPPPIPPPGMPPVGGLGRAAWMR

Compound | IC50 (CDK2/Cyclin E1 complex) | IC50 [1] | IC50 (CDK9/Cyclin T1 complex) | IC50 (COV318 cells) | IC50 [2] | IC50 (COV504 cells) | IC50 (HCC70 cells; [3]) | IC50 (MB453 cells; [4]) | IC50 (HCC70 cells; HCC70, 72 h) | IC50 (MB453 cells; 72 h)
C[C@H]1C[C@H](Nc2ncc(C(F)(F)F)c(-c3c[nH]c4cc(C#N)ccc34)n2)CN1 [Compound 104] | > 500 nM | > 500 nM | > 500 nM | > 2000 nM | 30 to 100 nM | 100 to 500 nM | 500 to 2000 nM | 100 to 500 nM |  | 
N#Cc1ccc2c(-c3nc(NC[C@@H]4COCCN4)ncc3C(F)(F)F)c[nH]c2c1 [Compound 102] | > 500 nM | > 500 nM | > 500 nM | > 2000 nM | > 500 nM | > 2000 nM | > 2000 nM | > 2000 nM |  | 
COCCN[C@H]1CC[C@@H]1Nc1ncc(C(F)(F)F)c(-c2c[nH]c3cc(C#N)ccc23)n1 [Compound 133] | > 500 nM | > 500 nM | > 500 nM | 500 to 2000 nM | 30 to 100 nM | 500 to 2000 nM | 500 to 2000 nM | 500 to 2000 nM |  | 
N#Cc1ccc2c(-c3nc(N[C@H]4CCC[C@@H]4N4CCCC4)ncc3C(F)(F)F)c[nH]c2c1 [Compound 122] | > 500 nM | > 500 nM | > 500 nM | 100 to 500 nM | 30 to 100 nM | 100 to 500 nM | 100 to 500 nM | 100 to 500 nM |  | 
Cc1noc(C)c1-c1ccc2c(-c3nc(N[C@H]4CCC[C@@H]4N4CC[C@H](F)C4)ncc3C(F)(F)F)c[nH]c2n1 [Compound 150, 4-[6-(3,5-dimethylisoxazol-4-yl)-1H-pyrrolo[2,3-b]pyridin-3-yl]-N-[(1S,2S)-2-[(3S)-3-fluoropyrrolidin-1-yl]cyclopentyl]-5-(trifluoromethyl)pyrimidin-2-amine] | > 500 nM | > 500 nM | > 500 nM | > 2000 nM | 30 to 100 nM | 500 to 2000 nM | 500 to 2000 nM | > 2000 nM |  | 
Cc1noc(C)c1-c1ccc2c(-c3nc(N[C@H]4C[C@H]5CC[N@](CC5)C4)ncc3C(F)(F)F)c[nH]c2n1 [Compound 141, (3S)—N-[4-[6-(3,5-dimethylisoxazol-4-yl)-1H-pyrrolo[2,3-b]pyridin-3-yl]-5-(trifluoromethyl)pyrimidin-2-yl]-1-azabicyclo[3.2.2]nonan-3-amine] | > 500 nM | > 500 nM | > 500 nM | < 100 nM | < 30 nM | < 100 nM | < 100 nM | < 100 nM |  | 
N#Cc1ccc2c(-c3nc(N[C@@H]4C[C@@H]5CC[C@H]4N5)ncc3C(F)(F)F)c[nH]c2c1 [Compound 115, 3-[2-[[(1R,2R,4S)-7-azabicyclo[2.2.1]heptan-3-yl]amino]-5-(trifluoromethyl)pyrimidin-4-yl]-1H-indole-6-carbonitrile] | > 500 nM | > 500 nM | > 500 nM | 500 to 2000 nM | 30 to 100 nM | 100 to 500 nM | 500 to 2000 nM | 100 to 500 nM |  | 
CCN[C@H]1CC[C@@H]1Nc1ncc(C(F)(F)F)c(-c2c[nH]c3nc(-c4c(C)noc4C)ccc23)n1 [Compound 160, (1S,2S)—N2-[4-[6-(3,5-dimethylisoxazol-4-yl)-1H-pyrrolo[2,3-b]pyridin-3-yl]-5-(trifluoromethyl)pyrimidin-2-yl]-N1-ethyl-cyclobutane-1,2-diamine] | > 500 nM | > 500 nM | > 500 nM | < 100 nM | < 30 nM | < 100 nM | < 100 nM | < 100 nM |  | 
Cc1noc(C)c1-c1ccc2c(-c3nc(N[C@H]4CC[C@@H]4N)ncc3C(F)(F)F)c[nH]c2n1 [Compound 129, (1S,2S)—N2-[4-[6-(3,5-dimethylisoxazol-4-yl)-1H-pyrrolo[2,3-b]pyridin-3-yl]-5-(trifluoromethyl)pyrimidin-2-yl]-cyclobutane-1,2-diamine] | > 500 nM | > 500 nM | > 500 nM | 100 to 500 nM | < 30 nM | < 100 nM | 100 to 500 nM | < 100 nM |  | 
CP(C)(=O)c1c(C#N)ccc2c(-c3nc(N[C@H]4CCC[C@@H]4N)ncc3C(F)(F)F)c[nH]c12 [Compound 161, 3-[2-[[(1S,2S)-2-aminocyclopentyl]amino]-5-(trifluoromethyl)pyrimidin-4-yl]-7-dimethylphosphoryl-1H-indole-6-carbonitrile] | > 500 nM | > 500 nM | > 500 nM | 100 to 500 nM | < 30 nM | < 100 nM | < 100 nM | < 100 nM |  | 
COCCN[C@H]1CCC[C@@H]1Nc1ncc(C(F)(F)F)c(-c2c[nH]c3cc(C#N)ccc23)n1 [Compound 123, 3-[2-[[(1S,2S)-2-(2-methoxyethylamino)cyclopentyl]-amino]-5-(trifluoromethyl)pyrimidin-4-yl]-1H-indole-6-carbonitrile] | > 500 nM | > 500 nM | > 500 nM | 100 to 500 nM | < 30 nM | 100 to 500 nM | 100 to 500 nM | 100 to 500 nM |  | 
C[C@@H]1C[C@H](Nc2ncc(C(F)(F)F)c(-c3c[nH]c4cc(C#N)ccc34)n2)CN1 [Compound 108] | > 500 nM | > 500 nM | > 500 nM | > 2000 nM | 30 to 100 nM | 500 to 2000 nM | 500 to 2000 nM | 500 to 2000 nM |  | 
N#Cc1ccc2c(-c3nc(N[C@H]4CCC[C@@H]4N4CCOCC4)ncc3C(F)(F)F)c[nH]c2c1 [Compound 121] | > 500 nM | > 500 nM | > 500 nM | > 2000 nM | 30 to 100 nM | > 2000 nM | > 2000 nM | > 2000 nM |  | 
CC(=O)N[C@H]1CCC[C@@H]1Nc1ncc(C(F)(F)F)c(-c2c[nH]c3cc(C#N)ccc23)n1 [Compound 120, N-[(1S,2S)-2-[[4-(6-cyano-1H-indol-3-yl)-5-(trifluoromethyl)pyrimidin-2-yl]-amino]cyclopentyl]-acetamide] | > 500 nM | > 500 nM | > 500 nM | > 2000 nM | > 500 nM | > 2000 nM | > 2000 nM | > 2000 nM |  | 
Cc1noc(C)c1-c1ccc2c(-c3nc(N[C@H]4CCC[C@@H]4N)ncc3C(F)(F)F)c[nH]c2c1 [Compound 118] | > 500 nM | > 500 nM | > 500 nM | < 100 nM | < 30 nM | < 100 nM | 100 to 500 nM | < 100 nM |  | 
CCN[C@H]1CCC[C@@H]1Nc1ncc(C(F)(F)F)c(-c2c[nH]c3nc(-c4c(C)noc4C)ccc23)n1 [Compound 145, (1S, 2S)—N1-[4-[6-(3,5-dimethylisoxazol-4-yl)-1H-pyrrolo [2,3-b]pyridin-3-yl]-5-(trifluoromethyl)pyrimidin-2-yl]-N2-ethyl-cyclopentane-1,2-diamine] | > 500 nM | > 500 nM | > 500 nM | < 100 nM | < 30 nM | < 100 nM |  |  | < 100 nM | < 100 nM
Cc1noc(C)c1-c1ccc2c(-c3nc(N[C@H]4CCC[C@@H]4NCCO)ncc3C(F)(F)F)c[nH]c2n1 [Compound 154, 2-[[(1S,2S)-2-[[4-[6-(3,5-dimethylisoxazol-4-yl)-1H-pyrrolo [2,3-b]pyridin-3-yl]-5-(trifluoromethyl)pyrimidin-2-yl]amino]cyclopentyl]amino]ethanol] | > 500 nM | > 500 nM | > 500 nM | 100 to 500 nM | < 30 nM | < 100 nM | < 100 nM | < 100 nM |  | 
Cc1noc(C)c1-c1ccc2c(-c3nc(N[C@@H]4C[C@H]5CC[N@](CC5)C4)ncc3C(F)(F)F)cn(S(=O)(=O)c3ccccc3)c2n1 [Compound 142, (3R)—N-[4-[1-(benzenesulfonyl)-6-(3,5-dimethylisoxazol-4-yl)pyrrolo[2,3-b]pyridin-3-yl]-5-(trifluoromethyl)pyrimidin-2-yl]-1-azabicyclo[3.2.2]nonan-3-amine] | > 500 nM | > 500 nM | > 500 nM | 100 to 500 nM | < 30 nM | 100 to 500 nM | 100 to 500 nM | 100 to 500 nM |  | 
